{"source": "patent US20260374756A1", "about": "“HETEROCYCLIC COMPOUNDS AS INHIBITORS OF MONOACYLGLYCEROL LIPASE (MAGL)” (Hoffmann-La Roche Inc., priority 2022, published 2026)", "data": [{"molecular_target": "T1, hMAGL (Homo sapiens, UniProt Q99685)", "T1 sequence (Q99685 1-303)": "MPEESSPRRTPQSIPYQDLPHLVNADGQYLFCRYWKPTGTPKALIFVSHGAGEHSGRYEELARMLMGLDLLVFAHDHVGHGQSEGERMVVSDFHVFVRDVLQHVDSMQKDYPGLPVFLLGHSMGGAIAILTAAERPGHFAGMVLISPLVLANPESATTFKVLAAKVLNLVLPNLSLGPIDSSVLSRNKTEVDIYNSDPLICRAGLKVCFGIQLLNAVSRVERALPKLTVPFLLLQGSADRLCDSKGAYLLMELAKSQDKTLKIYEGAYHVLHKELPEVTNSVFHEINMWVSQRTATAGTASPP", "test": "2-AG assay: MAGL inhibition, hydrolysis of 2-arachidonoylglycerol to arachidonic acid followed by mass spectrometry", "type": "biochemical", "summary_of_the_method": "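Read-out is LC-MS/MS of arachidonic acid released from 2-arachidonoylglycerol (8 μM final), normalised to d8-arachidonic acid internal standard after acetonitrile quench. Enzyme […] and compound were pre-mixed 15 min, then reacted 30 min, both at RT, in Tris/EDTA buffer with 0.01% Tween-20 and 2.5% DMSO.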", "units": {"IC50": "nM"}, "values": [{"molecule": "O=C(N1CC2(CCN(Cc3cc(C(F)(F)F)on3)CC2)C1)N1CC2(CC(n3cnc(C4(O)CC4)n3)C2)C1", "note": "[Example 81, [6-[3-(1-hydroxycyclopropyl)-1,2,4-triazol-1-yl]-2-azaspiro[3.3]heptan-2-yl]-[7-[[5-(trifluoromethyl)isoxazol-3-yl]methyl]-2,7-diazaspiro[3.5]nonan-2-yl]methanone]", "IC50": 251}, {"molecule": "O=C(N1CC2(CC(n3cnc(C(F)(F)F)n3)C2)C1)N1CC2(CN(Cc3nnc(C(F)(F)F)s3)C2)C1", "note": "[Example 82, [6-[[5-(trifluoromethyl)-1,3,4-thiadiazol-2-yl]methyl]-2,6-diazaspiro[3.3]heptan-2-yl]-[6-[3-(trifluoromethyl)-1,2,4-triazol-1-yl]-2-azaspiro[3.3]heptan-2-yl]methanone]", "IC50": 145}, {"molecule": "O=C(N1CC2(CC(n3cnc(C4CC4)n3)C2)C1)N1CC2(CN(Cc3nnc(C(F)(F)F)s3)C2)C1", "note": "[Example 83, [6-(3-cyclopropyl-1,2,4-triazol-1-yl)-2-azaspiro[3.3]heptan-2-yl]-[6-[[5-(trifluoromethyl)-1,3,4-thiadiazol-2-yl]methyl]-2,6-diazaspiro[3.3]heptan-2-yl]methanone]", "IC50": 66.8}, {"molecule": "O=C(N1CC2(CC(n3cnc(C4(O)CC4)n3)C2)C1)N1CC2(CN(Cc3nnc(C(F)(F)F)s3)C2)C1", "note": "[Example 84, [6-[3-(1-hydroxycyclopropyl)-1,2,4-triazol-1-yl]-2-azaspiro[3.3]heptan-2-yl]-[6-[[5-(trifluoromethyl)-1,3,4-thiadiazol-2-yl]methyl]-2,6-diazaspiro[3.3]heptan-2-yl]methanone]", "IC50": 2090}, {"molecule": "Cc1nc(C(F)(F)F)c(CN2CC3(C2)CN(C(=O)N2CC4(CC(n5cnc(C(F)(F)F)n5)C4)C2)C3)s1", "note": "[Example 85]", "IC50": 37.1}, {"molecule": "Cc1nc(C(F)(F)F)c(CN2CC3(C2)CN(C(=O)N2CC4(CC(n5cnc(C6CC6)n5)C4)C2)C3)s1", "note": "[Example 86, [6-(3-cyclopropyl-1,2,4-triazol-1-yl)-2-azaspiro[3.3]heptan-2-yl]-[6-[[2-methyl-4-(trifluoromethyl)thiazol-5-yl]methyl]-2,6-diazaspiro[3.3]heptan-2-yl]methanone]", "IC50": 2.65}, {"molecule": "Cc1nc(C(F)(F)F)c(CN2CC3(C2)CN(C(=O)N2CC4(CC(n5cnc(C6(O)CC6)n5)C4)C2)C3)s1", "note": "[Example 87, [6-[3-(1-hydroxycyclopropyl)-1,2,4-triazol-1-yl]-2-azaspiro[3.3]heptan-2-yl]-[6-[[2-methyl-4-(trifluoromethyl)thiazol-5-yl]methyl]-2,6-diazaspiro[3.3]heptan-2-yl]methanone]", "IC50": 351}, {"molecule": "Cn1cc(OC2CC3(C2)CN(C(=O)N2CC4(CC(n5cnc(C6(O)CC6)n5)C4)C2)C3)cn1", "note": "[Example 88, [6-[3-(1-hydroxycyclopropyl)-1,2,4-triazol-1-yl]-2-azaspiro[3.3]heptan-2-yl]-[6-(1-methylpyrazol-4-yl)oxy-2-azaspiro[3.3]heptan-2-yl]methanone]", "IC50": 1370}, {"molecule": "O=C(N1CC2(CC(n3cnc(C(F)(F)F)n3)C2)C1)N1CC2(CN(Cc3snnc3C3CC3)C2)C1", "note": "[Example 89, [6-[(4-cyclopropylthiadiazol-5-yl)methyl]-2,6-diazaspiro[3.3]heptan-2-yl]-[6-[3-(trifluoromethyl)-1,2,4-triazol-1-yl]-2-azaspiro[3.3]heptan-2-yl]methanone]", "IC50": 312}, {"molecule": "O=C(N1CC2(CC(n3cnc(C4CC4)n3)C2)C1)N1CC2(CN(Cc3snnc3C3CC3)C2)C1", "note": "[Example 90, [6-[(4-cyclopropylthiadiazol-5-yl)methyl]-2,6-diazaspiro[3.3]heptan-2-yl]-[6-(3-cyclopropyl-1,2,4-triazol-1-yl)-2-azaspiro[3.3]heptan-2-yl]methanone]", "IC50": 223}, {"molecule": "Cc1cc(C(F)F)n(CC2CC3(C2)CN(C(=O)N2CC4(CC(n5cnc(C(F)(F)F)n5)C4)C2)C3)n1", "note": "[Example 91, [6-[[5-(difluoromethyl)-3-methyl-pyrazol-1-yl]methyl]-2-azaspiro[3.3]heptan-2-yl]-[6-[3-(trifluoromethyl)-1,2,4-triazol-1-yl]-2-azaspiro[3.3]heptan-2-yl]methanone]", "IC50": 1.02}, {"molecule": "Cc1cc(C(F)F)n(CC2CC3(C2)CN(C(=O)N2CC4(CC(n5cnc(C6CC6)n5)C4)C2)C3)n1", "note": "[Example 92]", "IC50": 0.21}, {"molecule": "Cc1cc(C(F)F)n(CC2CC3(C2)CN(C(=O)N2CC4(CC(n5cnc(C6(O)CC6)n5)C4)C2)C3)n1", "note": "[Example 93, [6-[[5-(difluoromethyl)-3-methyl-pyrazol-1-yl]methyl]-2-azaspiro[3.3]heptan-2-yl]-[6-[3-(1-hydroxycyclopropyl)-1,2,4-triazol-1-yl]-2-azaspiro[3.3]heptan-2-yl]methanone]", "IC50": 5.48}, {"molecule": "Cc1cc(C(F)F)nn1CC1CC2(C1)CN(C(=O)N1CC3(CC(n4cnc(C(F)(F)F)n4)C3)C1)C2", "note": "[Example 94]", "IC50": 0.4}, {"molecule": "Cc1cc(C(F)F)nn1CC1CC2(C1)CN(C(=O)N1CC3(CC(n4cnc(C5CC5)n4)C3)C1)C2", "note": "[Example 95, [6-(3-cyclopropyl-1,2,4-triazol-1-yl)-2-azaspiro[3.3]heptan-2-yl]-[6-[[3-(difluoromethyl)-5-methyl-pyrazol-1-yl]methyl]-2-azaspiro[3.3]heptan-2-yl]methanone]", "IC50": 0.2}, {"molecule": "Cc1cc(C(F)F)nn1CC1CC2(C1)CN(C(=O)N1CC3(CC(n4cnc(C5(O)CC5)n4)C3)C1)C2", "note": "[Example 96, [6-[[3-(difluoromethyl)-5-methyl-pyrazol-1-yl]methyl]-2-azaspiro[3.3]heptan-2-yl]-[6-[3-(1-hydroxycyclopropyl)-1,2,4-triazol-1-yl]-2-azaspiro[3.3]heptan-2-yl]methanone]", "IC50": 3.05}, {"molecule": "CC(C)(C)c1coc(CN2CC3(C2)CN(C(=O)N2CC4(CC(n5cnc(C(F)(F)F)n5)C4)C2)C3)n1", "note": "[Example 97, [6-[(4-tert-butyloxazol-2-yl)methyl]-2,6-diazaspiro[3.3]heptan-2-yl]-[6-[3-(trifluoromethyl)-1,2,4-triazol-1-yl]-2-azaspiro[3.3]heptan-2-yl]methanone]", "IC50": 4.12}, {"molecule": "CC(C)(C)c1coc(CN2CC3(C2)CN(C(=O)N2CC4(CC(n5cnc(C6CC6)n5)C4)C2)C3)n1", "note": "[Example 98, [6-[(4-tert-butyloxazol-2-yl)methyl]-2,6-diazaspiro[3.3]heptan-2-yl]-[6-(3-cyclopropyl-1,2,4-triazol-1-yl)-2-azaspiro[3.3]heptan-2-yl]methanone]", "IC50": 0.96}, {"molecule": "O=C(N1CC2(CC(n3cnc(C(F)(F)F)n3)C2)C1)N1CC2(CN(Cc3ccn(CC(F)(F)F)n3)C2)C1", "note": "[Example 99, [6-[[1-(2,2,2-trifluoroethyl)pyrazol-3-yl]methyl]-2,6-diazaspiro[3.3]heptan-2-yl]-[6-[3-(trifluoromethyl)-1,2,4-triazol-1-yl]-2-azaspiro[3.3]heptan-2-yl]methanone]", "IC50": 386}, {"molecule": "O=C(N1CC2(CC(n3cnc(C4CC4)n3)C2)C1)N1CC2(CN(Cc3ccn(CC(F)(F)F)n3)C2)C1", "note": "[Example 100, [6-(3-cyclopropyl-1,2,4-triazol-1-yl)-2-azaspiro[3.3]heptan-2-yl]-[6-[[1-(2,2,2-trifluoroethyl)pyrazol-3-yl]methyl]-2,6-diazaspiro[3.3]heptan-2-yl]methanone]", "IC50": 92.6}, {"molecule": "O=C(N1CC2(CC(Cc3n[nH]c(C4(C(F)(F)F)CC4)n3)C2)C1)N1CC2(CC(n3cnc(C(F)(F)F)n3)C2)C1", "note": "[Example 101, [6-[[5-[1-(trifluoromethyl)cyclopropyl]-1H-1,2,4-triazol-3-yl]methyl]-2-azaspiro[3.3]heptan-2-yl]-[6-[3-(trifluoromethyl)-1,2,4-triazol-1-yl]-2-azaspiro[3.3]heptan-2-yl]methanone]", "IC50": 0.89}, {"molecule": "O=C(N1CC2(CC(Cc3n[nH]c(C4(C(F)(F)F)CC4)n3)C2)C1)N1CC2(CC(n3cnc(C4CC4)n3)C2)C1", "note": "[Example 102, [6-(3-cyclopropyl-1,2,4-triazol-1-yl)-2-azaspiro[3.3]heptan-2-yl]-[6-[[5-[1-(trifluoromethyl)cyclopropyl]-1H-1,2,4-triazol-3-yl]methyl]-2-azaspiro[3.3]heptan-2-yl]methanone]", "IC50": 0.58}, {"molecule": "O=C(N1CC2(CC(Cn3cc(C(F)(F)F)nn3)C2)C1)N1CC2(CC(c3cc(C4CC4)n[nH]3)C2)C1", "note": "[Example 103, [6-(3-cyclopropyl-1H-pyrazol-5-yl)-2-azaspiro[3.3]heptan-2-yl]-[6-[[4-(trifluoromethyl)triazol-1-yl]methyl]-2-azaspiro[3.3]heptan-2-yl]methanone]", "IC50": 1.63}, {"molecule": "O=C(N1CC2(CC(Cn3cc(C(F)(F)F)nn3)C2)C1)N1CC2(CC(n3cnc(C4CC4)n3)C2)C1", "note": "[Example 104, [6-(3-cyclopropyl-1,2,4-triazol-1-yl)-2-azaspiro[3.3]heptan-2-yl]-[6-[[4-(trifluoromethyl)triazol-1-yl]methyl]-2-azaspiro[3.3]heptan-2-yl]methanone]", "IC50": 1.45}, {"molecule": "O=C(N1CC2(CC(Cc3noc(C(F)(F)F)n3)C2)C1)N1CC2(CC(n3cnc(C4(O)CC4)n3)C2)C1", "note": "[Example 105]", "IC50": 14.1}, {"molecule": "O=C(N1CC2(CC(Cc3nc(C(F)(F)F)cs3)C2)C1)N1CC2(CC(n3cnc(C4(O)CC4)n3)C2)C1", "note": "[Example 106, [6-[3-(1-hydroxycyclopropyl)-1,2,4-triazol-1-yl]-2-azaspiro[3.3]heptan-2-yl]-[6-[[4-(trifluoromethyl)thiazol-2-yl]methyl]-2-azaspiro[3.3]heptan-2-yl]methanone]", "IC50": 8.94}, {"molecule": "O=C(N1CC2(CC(n3cnc(C(F)(F)F)n3)C2)C1)N1CC2(CN(Cc3cn(CC(F)(F)F)nn3)C2)C1", "note": "[Example 107, [6-[[1-(2,2,2-trifluoroethyl)triazol-4-yl]methyl]-2,6-diazaspiro[3.3]heptan-2-yl]-[6-[3-(trifluoromethyl)-1,2,4-triazol-1-yl]-2-azaspiro[3.3]heptan-2-yl]methanone]", "IC50": 2670}]}]}
